Test results: patent US10047074B2, “Pharmaceutical compound” (IOmet Pharma Ltd., priority 2014, dated 2018)

molecular target: T1, TDO (A172) (Homo sapiens, UniProt P48775); assay: A172 Kynurenine cell based assay; conditions: A172 human glioblastoma cells expressing TDO; kynurenine production, 48 hours
T1 construct: This assay utilised cancer cells which expressed either TDO (A172) or IDO (SKOV3); endogenous in cells; host or cells: A172 (human glioblastoma)
Experimental: (§1) Exemplary compounds of the invention were prepared, and tested to determine their effect as TDO and/or IDO inhibitors. Two different assays were employed: 1. a cell-based assay for detecting the effect of test compounds on kynurenine production in two different cancer cell types. This assay utilised cancer cells which expressed either TDO (A172) or IDO (SKOV3) and as such was used as a means of testing compound activity at these two enzymes in a cell-based context. 2. a TDO and IDO biochemical coupled assay which utilised recombinantly produced and purified TDO and IDO enzymes in combination with the enzyme formamidase. This coupled enzyme system allowed conversion of N-formylkynurenine produced by TDO or IDO activity to kynurenine which was then quantified by fluorescence following addition of Erhlich's Reagent The protocols for these are set out below.
(§2) Cell Based Assay for Detection of Kynurenine Produced by TDO and/or IDO
A172 (human glioblastoma) and SKOV3 (human ovarian adenocarcinoma) cells were seeded in a 96 well plate at 30,000 or 40,000 cells per well respectively in phenol red-free RPMI supplemented with 10% FCS, 2 mM L-glutamine and 500 µM L-tryptophan. IDO expression was induced in the SKOV3 cells by the addition of 500 ng/ml IFN-γ. Cells were incubated at 37° C. with or without the addition of test compound. After 48 hours, the cells were removed by centrifugation and Erhlich's reagent was added to the supernatant. The Erhlich's reagent was incubated for 5 minutes before the absorbance was read at 490 nm.

T1 sequence (P48775 whole entry): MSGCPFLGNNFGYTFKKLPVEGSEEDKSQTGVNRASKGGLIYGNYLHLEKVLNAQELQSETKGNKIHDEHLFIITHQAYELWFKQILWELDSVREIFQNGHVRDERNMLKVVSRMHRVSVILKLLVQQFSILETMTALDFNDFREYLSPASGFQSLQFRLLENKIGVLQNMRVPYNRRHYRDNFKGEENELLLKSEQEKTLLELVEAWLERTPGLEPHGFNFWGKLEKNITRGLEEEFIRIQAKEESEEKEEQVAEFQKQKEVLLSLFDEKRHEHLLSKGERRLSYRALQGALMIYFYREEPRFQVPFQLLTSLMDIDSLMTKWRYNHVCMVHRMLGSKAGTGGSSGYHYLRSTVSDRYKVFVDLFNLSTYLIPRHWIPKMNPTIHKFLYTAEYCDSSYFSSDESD

Row | Structure (SMILES) | A172 Kynurenine cell based assay pIC50
1 | Nc1oncc1-c1ccc(F)cc1 [Compound 1] | +++ (+++ = pIC50 ≥ 5.50)
2 | Nc1noc(N)c1-c1cccc(Cl)c1 [Compound 5] | +++ (+++ = pIC50 ≥ 5.50)
3 | Nc1oncc1-c1ccccc1 [Compound 7] | +++ (+++ = pIC50 ≥ 5.50)
4 | Nc1oncc1-c1cccc(F)c1 [Compound 13] | +++ (+++ = pIC50 ≥ 5.50)
5 | CC(=O)Nc1oncc1-c1ccccc1 [Compound 17] | ++ (++ = pIC50 4.50-5.49)
6 | O=S(=O)(Nc1oncc1-c1ccccc1)c1ccccc1 [Compound 26] | + (+ = pIC50 4.00-4.49)
7 | CC(C)C(=O)Nc1oncc1-c1ccccc1 [Compound 34] | ++ (++ = pIC50 4.50-5.49)
8 | O=C(Nc1oncc1-c1ccccc1)c1ccccc1 [Compound 49] | +++ (+++ = pIC50 ≥ 5.50)
9 | N#Cc1ccc(-c2cnoc2N)cc1 [Compound 50] | ++ (++ = pIC50 4.50-5.49)
10 | O=C(CO)Nc1oncc1-c1ccccc1 [Compound 63] | +++ (+++ = pIC50 ≥ 5.50)
11 | CC(C)CS(=O)(=O)Nc1cncn1-c1ccccc1 [Compound 72] | +/− (+/− = pIC50 < 4.00)
12 | NCC(=O)Nc1oncc1-c1ccccc1 [Compound 73] | +++ (+++ = pIC50 ≥ 5.50)
13 | O=C(Nc1oncc1-c1ccccc1)C(O)C1CCCCC1 (stereo not shown) [Compound 74] | + (+ = pIC50 4.00-4.49)
14 | CC(O)C(=O)Nc1oncc1-c1ccccc1 (stereo not shown) [Compound 75] | +++ (+++ = pIC50 ≥ 5.50)
15 | O=C(Nc1oncc1-c1ccccc1)C(O)c1ccccc1 (stereo not shown) [Compound 76] | ++ (++ = pIC50 4.50-5.49)
16 | O=C(Nc1cnoc1-c1ccccc1)c1ccccc1 [Compound 77] | +/− (+/− = pIC50 < 4.00)
17 | Nc1oncc1-c1ccccc1CCO [Compound 78] | ++ (++ = pIC50 4.50-5.49)
18 | O=S(=O)(Nc1cncn1-c1ccccc1)c1ccccc1 [Compound 79] | +/− (+/− = pIC50 < 4.00)
19 | CC(C)CS(=O)(=O)Nc1cnoc1-c1ccccc1 [Compound 80] | +/− (+/− = pIC50 < 4.00)
20 | CC(N)C(=O)Nc1oncc1-c1ccccc1 (stereo not shown) [Compound 81] | +++ (+++ = pIC50 ≥ 5.50)
21 | NCCNc1oncc1-c1ccccc1 [Compound 82] | +++ (+++ = pIC50 ≥ 5.50)

molecular target: T2, IDO (SKOV3) (Homo sapiens, UniProt P14902); assay: SKOV3 Kynurenine cell based assay; conditions: SKOV3 human ovarian adenocarcinoma cells, IDO induced by IFN-γ; kynurenine production, 48 hours
T2 construct: IDO expression was induced in the SKOV3 cells by the addition of 500 ng/ml IFN-γ; endogenous in cells; host or cells: SKOV3 (human ovarian adenocarcinoma), IFN-γ induced
T2 sequence (P14902 whole entry): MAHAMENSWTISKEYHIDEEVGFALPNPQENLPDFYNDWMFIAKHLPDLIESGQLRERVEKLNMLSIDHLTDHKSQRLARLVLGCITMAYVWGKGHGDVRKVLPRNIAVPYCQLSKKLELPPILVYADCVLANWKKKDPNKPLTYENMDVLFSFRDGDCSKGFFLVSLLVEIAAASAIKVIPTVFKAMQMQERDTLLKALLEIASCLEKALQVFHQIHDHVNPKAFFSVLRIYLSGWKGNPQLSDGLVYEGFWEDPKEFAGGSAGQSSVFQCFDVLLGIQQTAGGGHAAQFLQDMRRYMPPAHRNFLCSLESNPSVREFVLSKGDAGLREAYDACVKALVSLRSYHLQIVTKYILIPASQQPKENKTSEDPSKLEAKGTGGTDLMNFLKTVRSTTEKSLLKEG
Experimental: as §1, §2
A172 (human glioblastoma) and SKOV3 (human ovarian adenocarcinoma) cells were seeded in a 96 well plate at 30,000 or 40,000 cells per well respectively in phenol red-free RPMI supplemented with 10% FCS, 2 mM L-glutamine and 500 µM L-tryptophan. IDO expression was induced in the SKOV3 cells by the addition of 500 ng/ml IFN-γ. Cells were incubated at 37° C. with or without the addition of test compound. After 48 hours, the cells were removed by centrifugation and Erhlich's reagent was added to the supernatant.

Row | Structure (SMILES) | SKOV3 Kynurenine cell based assay pIC50
22 | Nc1oncc1-c1ccc(F)cc1 [Compound 1] | ++ (++ = pIC50 4.50-5.49)
23 | Nc1noc(N)c1-c1cccc(Cl)c1 [Compound 5] | ++ (++ = pIC50 4.50-5.49)
24 | Nc1oncc1-c1ccccc1 [Compound 7] | ++ (++ = pIC50 4.50-5.49)
25 | Nc1oncc1-c1cccc(F)c1 [Compound 13] | ++ (++ = pIC50 4.50-5.49)
26 | CC(=O)Nc1oncc1-c1ccccc1 [Compound 17] | + (+ = pIC50 4.00-4.49)
27 | O=S(=O)(Nc1oncc1-c1ccccc1)c1ccccc1 [Compound 26] | ++ (++ = pIC50 4.50-5.49)
28 | CC(C)C(=O)Nc1oncc1-c1ccccc1 [Compound 34] | ++ (++ = pIC50 4.50-5.49)
29 | O=C(Nc1oncc1-c1ccccc1)c1ccccc1 [Compound 49] | ++ (++ = pIC50 4.50-5.49)
30 | N#Cc1ccc(-c2cnoc2N)cc1 [Compound 50] | ++ (++ = pIC50 4.50-5.49)
31 | O=C(CO)Nc1oncc1-c1ccccc1 [Compound 63] | ++ (++ = pIC50 4.50-5.49)
32 | CC(C)CS(=O)(=O)Nc1cncn1-c1ccccc1 [Compound 72] | + (+ = pIC50 4.00-4.49)
33 | NCC(=O)Nc1oncc1-c1ccccc1 [Compound 73] | ++ (++ = pIC50 4.50-5.49)
34 | O=C(Nc1oncc1-c1ccccc1)C(O)C1CCCCC1 (stereo not shown) [Compound 74] | + (+ = pIC50 4.00-4.49)
35 | CC(O)C(=O)Nc1oncc1-c1ccccc1 (stereo not shown) [Compound 75] | + (+ = pIC50 4.00-4.49)
36 | O=C(Nc1oncc1-c1ccccc1)C(O)c1ccccc1 (stereo not shown) [Compound 76] | + (+ = pIC50 4.00-4.49)
37 | O=C(Nc1cnoc1-c1ccccc1)c1ccccc1 [Compound 77] | + (+ = pIC50 4.00-4.49)
38 | Nc1oncc1-c1ccccc1CCO [Compound 78] | + (+ = pIC50 4.00-4.49)
39 | O=S(=O)(Nc1cncn1-c1ccccc1)c1ccccc1 [Compound 79] | ++ (++ = pIC50 4.50-5.49)
40 | CC(C)CS(=O)(=O)Nc1cnoc1-c1ccccc1 [Compound 80] | + (+ = pIC50 4.00-4.49)
41 | CC(N)C(=O)Nc1oncc1-c1ccccc1 (stereo not shown) [Compound 81] | ++ (++ = pIC50 4.50-5.49)
42 | NCCNc1oncc1-c1ccccc1 [Compound 82] | + (+ = pIC50 4.00-4.49)

molecular target: Recombinant human IDO (Homo sapiens, UniProt P14902); assay: hIDO biochemical assay (coupled with formamidase); conditions: coupled with kynurenine formamidase, fluorescence
Sequence (P14902 whole entry): as above
Experimental: as §1
(§3) TDO and IDO Biochemical Coupled Assay
(§4) Recombinant human IDO or TDO was incubated in 50 mM KPO4 (pH 7.0), 0.5 mM EGTA, 0.5 mM EDTA, 0.05% Triton™ X100, 20 mM ascorbate, […] methylene blue, 500 U/ml catalase, 50 μg/ml KynB (kynurenine formamidase). TDO assays were carried out in the presence of 330 μM L-tryptophan, while IDO assays had the addition of 45 µM L-tryptophan. After incubation for 17 minutes at room temperature the reactions were stopped by the addition of Erhlich's reagent and incubated at room temperature for 5 minutes before the fluorescence was read (Ex475, Em530).

Row | Structure (SMILES) | hIDO biochemical assay pIC50
43 | Nc1oncc1-c1ccc(F)cc1 [Compound 1] | ++ (++ = pIC50 4.50-5.49)
44 | Nc1noc(N)c1-c1cccc(Cl)c1 [Compound 5] | ++ (++ = pIC50 4.50-5.49)
45 | Nc1oncc1-c1ccccc1 [Compound 7] | ++ (++ = pIC50 4.50-5.49)
46 | Nc1oncc1-c1cccc(F)c1 [Compound 13] | ++ (++ = pIC50 4.50-5.49)
47 | CC(=O)Nc1oncc1-c1ccccc1 [Compound 17] | + (+ = pIC50 4.00-4.49)
48 | O=S(=O)(Nc1oncc1-c1ccccc1)c1ccccc1 [Compound 26] | +++ (+++ = pIC50 ≥ 5.50)
49 | CC(C)C(=O)Nc1oncc1-c1ccccc1 [Compound 34] | ++ (++ = pIC50 4.50-5.49)
50 | O=C(Nc1oncc1-c1ccccc1)c1ccccc1 [Compound 49] | +/− (+/− = pIC50 < 4.00)
51 | N#Cc1ccc(-c2cnoc2N)cc1 [Compound 50] | ++ (++ = pIC50 4.50-5.49)
52 | O=C(CO)Nc1oncc1-c1ccccc1 [Compound 63] | + (+ = pIC50 4.00-4.49)
53 | CC(O)C(=O)Nc1oncc1-c1ccccc1 (stereo not shown) [Compound 75] | ++ (++ = pIC50 4.50-5.49)
54 | CC(C)CS(=O)(=O)Nc1cnoc1-c1ccccc1 [Compound 80] | ++ (++ = pIC50 4.50-5.49)
55 | CC(N)C(=O)Nc1oncc1-c1ccccc1 (stereo not shown) [Compound 81] | + (+ = pIC50 4.00-4.49)

molecular target: Recombinant human TDO (Homo sapiens, UniProt P48775); assay: hTDO biochemical assay (coupled with formamidase); conditions: 330 μM L-tryptophan, coupled with kynurenine formamidase, fluorescence
Sequence (P48775 whole entry): as the sequence (P48775 whole entry) above
Experimental: as §1, §3, §4

Row | Structure (SMILES) | hTDO biochemical assay pIC50
56 | Nc1oncc1-c1ccc(F)cc1 [Compound 1] | ++ (++ = pIC50 4.50-5.49)
57 | Nc1noc(N)c1-c1cccc(Cl)c1 [Compound 5] | + (+ = pIC50 4.00-4.49)
58 | Nc1oncc1-c1ccccc1 [Compound 7] | ++ (++ = pIC50 4.50-5.49)
59 | Nc1oncc1-c1cccc(F)c1 [Compound 13] | + (+ = pIC50 4.00-4.49)
60 | CC(=O)Nc1oncc1-c1ccccc1 [Compound 17] | + (+ = pIC50 4.00-4.49)
61 | O=S(=O)(Nc1oncc1-c1ccccc1)c1ccccc1 [Compound 26] | +/− (+/− = pIC50 < 4.00)
62 | CC(C)C(=O)Nc1oncc1-c1ccccc1 [Compound 34] | ++ (++ = pIC50 4.50-5.49)
63 | O=C(Nc1oncc1-c1ccccc1)c1ccccc1 [Compound 49] | + (+ = pIC50 4.00-4.49)
64 | O=C(CO)Nc1oncc1-c1ccccc1 [Compound 63] | +/− (+/− = pIC50 < 4.00)
65 | CC(O)C(=O)Nc1oncc1-c1ccccc1 (stereo not shown) [Compound 75] | ++ (++ = pIC50 4.50-5.49)
66 | CC(C)CS(=O)(=O)Nc1cnoc1-c1ccccc1 [Compound 80] | +/− (+/− = pIC50 < 4.00)
67 | CC(N)C(=O)Nc1oncc1-c1ccccc1 (stereo not shown) [Compound 81] | +/− (+/− = pIC50 < 4.00)
